The subject of experiment [1] is mice. The note with it: mice treated with MPTP; cited from earlier work.
Experiment [2] has as its target human mGlu4 receptor (Homo sapiens (Human), UniProt Q14833). Put plainly: Ca2+ mobilization in vitro assay on recombinant human mGlu4 expressed in HEK293 cells (PAM). In kind it is cell-based. The note with it: for Emax: HEK293, maximal response in % of maximal stimulatory effect of saturating L-AP4, read-out: Eff. (%); for EC50: HEK293 cells, human mGlu4, L-AP4 at EC20. How it is done: Determination of EC50 Values Using a Ca2+ Mobilization In Vitro Assay on Recombinant Human mGlu4 Expressed in HEK293 Cells:
A monoclonal HEK-293 cell line stably transfected with a cDNA encoding for the human mGlu4 receptor was generated; for the work with mGlu4 Positive Allosteric Modulators (PAMs), a cell line with low receptor expression levels and low constitutive receptor activity was selected to allow the differentiation of agonistic versus PAM activity. Cells were cultured according to standard protocols (Freshney, 2000) in Dulbecco's Modified Eagle Medium with high glucose supplemented with 1 mM glutamine, 10% (vol/vol) heat-inactivated bovine calf serum, Penicillin/Streptomycin, 50 μg/ml hygromycin and 15 μg/ml blasticidin (all cell culture reagents and antibiotics from Invitrogen, Basel, Switzerland).
About 24 hrs before an experiment, 5×10^4 cells/well were seeded in poly-D-lysine coated, black/clear-bottomed 96-well plates. The cells were loaded with 2.5 μM Fluo-4AM in loading buffer (1×HBSS, 20 mM HEPES) for 1 hr at 37° C. and washed five times with loading buffer. The cells were transferred into a Functional Drug Screening System 7000 (Hamamatsu, Paris, France), and 11 half logarithmic serial dilutions of test compound at 37° C. were added and the cells were incubated for 10-30 min. with on-line recording of fluorescence. Following this pre-incubation step, the agonist (2S)-2-amino-4-phosphonobutanoic acid (L-AP4) was added to the cells at a concentration corresponding to EC20 with on-line recording of fluorescence; in order to account for day-to-day variations in the responsiveness of cells, the EC20 of L-AP4 was determined immediately ahead of each experiment by recording of a full dose-response curve of L-AP4.
Responses were measured as peak increase in fluorescence minus basal (i.e. fluorescence without addition of L-AP4), normalized to the maximal stimulatory effect obtained with saturating concentrations of L-AP4. Graphs were plotted with the % maximal stimulatory using XLfit, a curve fitting program that iteratively plots the data using Levenburg Marquardt algorithm. The single site competition analysis equation used was y=A+((B−A)/(1+((x/C)D))), where y is the % maximal stimulatory effect, A is the minimum y, B is the maximum y, C is the EC50, x is the log 10 of the concentration of the competing compound and D is the slope of the curve (the Hill Coefficient). From these curves the EC50 (drug concentration at which 50% of the maximal receptor activation was achieved), the Hill coefficient as well as the maximal response in % of the maximal stimulatory effect obtained with saturating concentrations of L-AP4 were calculated (see FIG. 1).
A depression of the signal observed after addition of the EC20 concentration of L-AP4 was indicative of an inhibitory activity of the test compound.
On the technique in general: Calcium flux is commonly read through the fluorescence of an indicator in the cells.

Experiment [3] relates to rodent. The conditions noted are these: 6-OHDA rodent model of PD; cited from earlier work.
Experiment [4] relates to mice. The conditions noted are these: cited from earlier work.
Experiment [5] deals with rats. The note with it: cited from earlier work.
Experiment [6] has as its system mice. The note with it: cited from earlier work. The source holds these as a separate data set.

Chain of human mGlu4 receptor (Q14833 33-912): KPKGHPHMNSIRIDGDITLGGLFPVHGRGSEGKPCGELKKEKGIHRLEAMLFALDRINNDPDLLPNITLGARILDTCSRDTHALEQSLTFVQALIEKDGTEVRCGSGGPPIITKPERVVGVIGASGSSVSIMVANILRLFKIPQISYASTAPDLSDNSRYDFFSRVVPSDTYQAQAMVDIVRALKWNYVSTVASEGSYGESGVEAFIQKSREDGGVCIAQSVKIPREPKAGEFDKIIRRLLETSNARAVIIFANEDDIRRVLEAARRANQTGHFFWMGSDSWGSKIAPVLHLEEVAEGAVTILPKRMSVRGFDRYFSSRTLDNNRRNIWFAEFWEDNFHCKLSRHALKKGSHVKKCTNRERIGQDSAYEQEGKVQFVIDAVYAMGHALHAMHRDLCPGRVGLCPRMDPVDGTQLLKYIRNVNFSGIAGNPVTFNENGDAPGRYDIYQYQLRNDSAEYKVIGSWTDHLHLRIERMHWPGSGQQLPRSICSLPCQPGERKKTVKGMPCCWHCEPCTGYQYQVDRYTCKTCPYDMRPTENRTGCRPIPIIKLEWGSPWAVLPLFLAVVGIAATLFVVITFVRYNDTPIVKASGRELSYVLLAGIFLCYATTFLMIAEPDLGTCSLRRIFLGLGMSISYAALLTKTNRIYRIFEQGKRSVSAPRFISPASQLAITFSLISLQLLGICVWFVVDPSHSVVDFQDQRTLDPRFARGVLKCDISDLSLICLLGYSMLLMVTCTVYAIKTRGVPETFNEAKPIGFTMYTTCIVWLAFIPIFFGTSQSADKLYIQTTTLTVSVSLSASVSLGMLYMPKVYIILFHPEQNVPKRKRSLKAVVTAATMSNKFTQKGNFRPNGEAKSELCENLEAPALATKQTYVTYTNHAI

For the compound `O=C(Nc1ccccc1)C12CC1/C(=N\O)c1ccccc1O2` (single isomer, unassigned; (-)) [(−)-PHCCC], the nigrostriatal degeneration result in experiment [1] is “reduced nigrostriatal degeneration”.

On to `CN1C(=O)N(c2c(F)cc(C#Cc3ccccc3)cc2F)C(=O)C[C@]12CCCCc1c2cnn1C` [Example 16, (4S)-3′-[2,6-Difluoro-4-(2-phenylethynyl)phenyl]-1,1′-dimethyl-spiro[5,6,7,8-tetrahydrocyclohepta[c]pyrazole-4,6′-hexahydropyrimidine]-2′,4′-dione], for which, in experiment [2], the Emax was 137% and the EC50 (in general, the concentration at which the effect is half-maximal) was determined as 34 nM.

Regarding `CN1C(=O)N(c2c(F)cc(C#Cc3cccnc3)cc2F)C(=O)C[C@]12CCOc1ccccc12` [Example 8, (4S)-3′-[2,6-Difluoro-4-[2-(3-pyridyl)ethynyl]phenyl]-1′-methyl-spiro[chromane-4,6′-hexahydropyrimidine]-2′,4′-dione], in experiment [2], the Emax worked out at 145% and the EC50 was 88 nM.

Consider `CN1C(=O)N(c2c(F)cc(C#Cc3ccccc3)cc2F)C(=O)C[C@]12CCCc1c2cnn1C` [Example 14, (4S)-3′-[2,6-Difluoro-4-(2-phenylethynyl)phenyl]-1,1′-dimethyl-spiro[6,7-dihydro-5H-indazole-4,6′-hexahydropyrimidine]-2′,4′-dione], for which, in experiment [2], the Emax came to 151% and the EC50 came out at 75 nM.

For `CN1C(=O)N(c2c(F)cc(C#Cc3ccccc3)cc2F)C(=O)C[C@]12CCc1ncccc12` [Example 4, (5S)-3′-[2,6-Difluoro-4-(2-phenylethynyl)phenyl]-1′-methyl-spiro[6,7-dihydrocyclopenta[b]pyridine-5,6′-hexahydropyrimidine]-2′,4′-dione], in experiment [2], the Emax came to 115% and the EC50 is 94 nM.

Turning to `CN1C(=O)N(c2c(F)cc(C#Cc3ccccc3)cc2F)C(=O)C[C@]12CCCc1ncncc12` [Example 7, (5S)-3′-[2,6-Difluoro-4-(2-phenylethynyl)phenyl]-1′-methyl-spiro[7,8-dihydro-6H-quinazoline-5,6′-hexahydropyrimidine]-2′,4′-dione], in experiment [2], the Emax came to 115% and the EC50 came to 65 nM.

Consider `CN1C(=O)N(c2c(F)cc(C#Cc3ccccc3)cc2F)C(=O)C[C@]12CCCCc1[nH]ncc12` [Example 15, (4S)-3′-[2,6-Difluoro-4-(2-phenylethynyl)phenyl]-1′-methyl-spiro[5,6,7,8-tetrahydro-1H-cyclohepta[c]pyrazole-4,6′-hexahydropyrimidine]-2′,4′-dione], for which, in experiment [2], the Emax is 133% and the half-maximal effective concentration (EC50) was found to be 54 nM.

For `CN1C(=O)N(c2c(F)cc(C#Cc3ccccc3)cc2F)C(=O)C[C@]12CCOc1ncccc12` [Example 9, (4S)-3′-[2,6-Difluoro-4-(2-phenylethynyl)phenyl]-1′-methyl-spiro[2,3-dihydropyrano[2,3-b]pyridine-4,6′-hexahydropyrimidine]-2′,4′-dione], in experiment [2], the Emax turned out to be 124% and the EC50 is 51 nM.

For `CCN1C(=O)N(c2c(F)cc(C#Cc3ccccc3)cc2F)C(=O)C[C@]12CCCc1ccncc12` [Example 11, (8S)-3′-[2,6-Difluoro-4-(2-phenylethynyl)phenyl]-1′-ethyl-spiro[6,7-dihydro-5H-isoquinoline-8,6′-hexahydropyrimidine]-2′,4′-dione], in experiment [2], the Emax is 130% and the EC50 turned out to be 114 nM.

As to `CN1C(=O)N(c2c(F)cc(C#Cc3ccccc3)cc2F)C(=O)C[C@]12CCCc1[nH]ncc12` [Example 12, (4S)-3′-[2,6-Difluoro-4-(2-phenylethynyl)phenyl]-1′-methyl-spiro[1,5,6,7-tetrahydroindazole-4,6′-hexahydropyrimidine]-2′,4′-dione], in experiment [2], the Emax is 152% and the EC50 stood at 51 nM.

Regarding `CN1C(=O)N(c2c(F)cc(C#Cc3ccccc3)cc2F)C(=O)C[C@]12CCCc1nn(C)cc12` [Example 13, (4S)-3′-[2,6-Difluoro-4-(2-phenylethynyl)phenyl]-1′,2-dimethyl-spiro[6,7-dihydro-5H-indazole-4,6′-hexahydropyrimidine]-2′,4′-dione], in experiment [2], the Emax worked out at 165% and the concentration for a half-maximal effect (EC50) stood at 39 nM.

For the compound `CN1C(=O)N(c2c(F)cc(C#Cc3ccccc3)cc2F)C(=O)C[C@]12CCCc1ncccc12` [Example 5, (5S)-3′-[2,6-Difluoro-4-(2-phenylethynyl)phenyl]-1′-methyl-spiro[7,8-dihydro-6H-quinoline-5,6′-hexahydropyrimidine]-2′,4′-dione], in experiment [2], the Emax stood at 121% and the EC50 was determined as 76 nM.

On to `N[C@@H](CCP(=O)(O)O)C(=O)O` [L-AP4, (2S)-2-amino-4-phosphonobutanoic acid], for which, in experiment [3], the neuroprotective effects result is listed as “neuroprotective effects”.

Regarding `CN1C(=O)N(c2c(F)cc(C#Cc3ccccc3)cc2F)C(=O)C[C@]12CCCCc1nn(C)cc12` [Example 17, (4S)-3′-[2,6-Difluoro-4-(2-phenylethynyl)phenyl]-1′,2-dimethyl-spiro[5,6,7,8-tetrahydrocyclohepta[c]pyrazole-4,6′-hexahydropyrimidine]-2′,4′-dione], in experiment [2], the Emax came to 131% and the EC50 amounted to 39 nM.

Take `CN1C(=O)N(c2c(F)cc(C#Cc3cccnc3)cc2F)C(=O)C[C@]12COCc1ccccc12` [Example 10, (6S)-3-[2,6-Difluoro-4-[2-(3-pyridyl)ethynyl]phenyl]-1-methyl-spiro[hexahydropyrimidine-6,4′-isochromane]-2,4-dione]: in experiment [2], the Emax worked out at 118% and the EC50 was 43 nM.

As for `CN1C(=O)N(c2c(F)cc(C#Cc3ccccc3)cc2F)C(=O)C[C@]12CCCc1cnccc12` [Example 6, (5S)-3′-[2,6-Difluoro-4-(2-phenylethynyl)phenyl]-1′-methyl-spiro[7,8-dihydro-6H-isoquinoline-5,6′-hexahydropyrimidine]-2′,4′-dione], in experiment [2], the Emax was determined as 115% and the EC50 came to 65 nM.

Consider `Cc1ccnc(Nc2nc(-c3cn[nH]c3)c(C)s2)n1` [ADX88178], for which the “activity in EPM” value in experiment [4] and in experiment [5] (rats) was “active” in each case. In experiment [5] (rat, after oral dosing), the “profile in the rat EPM test” value was “anxiolytic-like profile”. In experiment [6], the “activity in marble burying test” value is on record as “active”.

Turning to `CN1C(=O)N(c2c(F)cc(C#Cc3ccccc3)cc2F)C(=O)C[C@]12CCCc1ccncc12` [Example 1, (8S)-3′-[2,6-Difluoro-4-(2-phenylethynyl)phenyl]-1′-methyl-spiro[6,7-dihydro-5H-isoquinoline-8,6′-hexahydropyrimidine]-2′,4′-dione], in experiment [2], the Emax turned out to be 101% and the EC50 came to 58 nM.

For the compound `CN1C(=O)N(c2c(F)cc(C#Cc3cccnc3)cc2F)C(=O)C[C@]12CCCc1ccccc12` [Example 2, (6S)-3-[2,6-Difluoro-4-[2-(3-pyridyl)ethynyl]phenyl]-1-methyl-spiro[hexahydropyrimidine-6,1′-tetralin]-2,4-dione], in experiment [2], the Emax was 101% and the EC50 stood at 52 nM.

Turning to `CN1C(=O)N(c2c(F)cc(C#Cc3cccnc3)cc2F)C(=O)C[C@]12CCc1ccccc12` [Example 3, (6S)-3-[2,6-Difluoro-4-[2-(3-pyridyl)ethynyl]phenyl]-1-methyl-spiro[hexahydropyrimidine-6,1′-indane]-2,4-dione], in experiment [2], the Emax stood at 94% and the EC50 stood at 61 nM.
